Assay results from the supplement of paper PMC10307832.

Key:
Assay in all cases: relative viability (nuclei count vs DMSO), 5 days (fraction); higher = more cells survive
Cediranib + Dasatinib = compound: COc1cc2c(Oc3ccc4[nH]c(C)cc4c3F)ncnc2cc1OCCCN1CCCC1 [Cediranib] + Cc1nc(Nc2ncc(C(=O)Nc3c(C)cccc3Cl)s2)cc(N2CCN(CCO)CC2)n1 [Dasatinib] (partner 0.075 µM)
In short: (§1)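 Lung cancer cell lines in 1536-well plates were dosed by pin tool the day after seeding, either with one drug alone or with a fixed anchor-drug dose plus five library-drug doses (not always all listed) in √10 steps. After 5 days, cells were fixed and their nuclei stained in one step (final 0.05% Triton X-100, 1% formaldehyde, 1 ug/ml Hoechst), then counted on 4× images. Relative viability is the nuclei count in treated wells divided by that in vehicle wells. Values are medians of duplicate plates.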

Cediranib + Phenformin = compound: COc1cc2c(Oc3ccc4[nH]c(C)cc4c3F)ncnc2cc1OCCCN1CCCC1 [Cediranib] + N=C(N)NC(=N)NCCc1ccccc1 [Phenformin] (partner 250 µM)
In short: as §1

Decitabine + Lapatinib = compound: Nc1ncn([C@H]2C[C@H](O)[C@@H](CO)O2)c(=O)n1 [Decitabine] + CS(=O)(=O)CCNCc1ccc(-c2ccc3ncnc(Nc4ccc(OCc5cccc(F)c5)c(Cl)c4)c3c2)o1 [Lapatinib] (partner 2 µM)
In short: as §1

Halofuginone + Lapatinib = compound: O=C(C[C@H]1NCCC[C@@H]1O)Cn1cnc2cc(Br)c(Cl)cc2c1=O (racemic) [Halofuginone] + CS(=O)(=O)CCNCc1ccc(-c2ccc3ncnc(Nc4ccc(OCc5cccc(F)c5)c(Cl)c4)c3c2)o1 [Lapatinib] (partner 2 µM)
In short: as §1

| Cell Line | relative viability (Cediranib + Dasatinib; first compound 0.04 µM) | relative viability (Cediranib + Dasatinib; first compound 0.1265 µM) | relative viability (Cediranib + Dasatinib; first compound 0.4 µM) | relative viability (Cediranib + Dasatinib; first compound 1.265 µM) | relative viability (Cediranib + Dasatinib; first compound 4 µM) | relative viability (Cediranib + Phenformin; first compound 0.04 µM) | relative viability (Cediranib + Phenformin; first compound 0.4 µM) | relative viability (Cediranib + Phenformin; first compound 1.265 µM) | relative viability (Cediranib + Phenformin; first compound 4 µM) | relative viability (Decitabine + Lapatinib; first compound 0.04 µM) | relative viability (Decitabine + Lapatinib; first compound 0.1265 µM) | relative viability (Decitabine + Lapatinib; first compound 0.4 µM) | relative viability (Decitabine + Lapatinib; first compound 1.265 µM) | relative viability (Decitabine + Lapatinib; first compound 4 µM) | relative viability (Halofuginone + Lapatinib; first compound 0.001 µM) | relative viability (Halofuginone + Lapatinib; first compound 0.003162 µM) | relative viability (Halofuginone + Lapatinib; first compound 0.01 µM) | relative viability (Halofuginone + Lapatinib; first compound 0.03162 µM) | relative viability (Halofuginone + Lapatinib; first compound 0.1 µM) | relative viability (Cediranib + Phenformin; first compound 0.1265 µM) |
| --- | --- | --- | --- | --- | --- | --- | --- | --- | --- | --- | --- | --- | --- | --- | --- | --- | --- | --- | --- | --- |
| NCI-H3122 | 0.901 | 0.694 | 0.731 | 0.542 | 0.897 | 0.374 | 0.364 | 0.36 | 0.363 | 1.05 | 1.03 | 1.02 | 0.816 | 0.783 | 1.02 | 1.05 | 0.975 | 0.987 | 1.04 |  |
| PC-3 [JPC-3] | 1.09 | 1.1 | 0.966 | 1.04 | 0.909 | 0.462 | 0.489 | 0.472 | 0.468 |  | 0.467 | 0.269 | 0.421 | 0.383 | 0.466 | 0.428 | 0.436 | 0.511 | 0.461 | 0.498 |
| PC-14 | 0.235 | 0.27 | 0.243 | 0.224 | 0.0965 | 0.593 | 0.508 | 0.517 | 0.567 |  | 0.297 | 0.196 | 0.226 | 0.228 | 0.325 | 0.311 | 0.343 | 0.419 | 0.313 | 0.756 |
| RERF-LC-KJ | 0.823 | 0.695 | 0.842 | 0.834 | 0.838 | 0.42 | 0.386 | 0.476 | 0.426 | 0.804 | 0.894 | 0.704 | 0.717 | 0.656 | 0.951 | 0.888 | 0.795 | 0.833 | 0.874 | 0.442 |
| SK-LU-1 | 0.184 | 0.244 | 0.175 | 0.175 | 0.202 | 0.541 | 0.497 | 0.456 | 0.439 | 0.66 | 0.604 | 0.42 | 0.457 | 0.38 | 0.945 | 1.04 | 0.806 | 0.787 | 0.505 | 0.708 |
| SK-MES-1 | 0.37 | 0.47 | 0.413 | 0.427 | 0.252 | 0.663 | 0.618 | 0.626 | 0.639 | 0.463 | 0.49 | 0.406 | 0.383 | 0.286 | 0.486 | 0.454 | 0.474 | 0.409 | 0.342 | 0.748 |
| SW 1573 | 0.646 | 0.661 | 0.43 | 0.389 | 0.524 | 0.35 | 0.329 | 0.394 | 0.416 | 1.03 | 0.993 | 1.05 | 0.646 | 0.515 | 1.13 | 1.29 | 1.1 | 1.1 | 1.07 | 0.336 |
